pKi: −log10 of the molar value.

T1 sequence (P37288 whole entry): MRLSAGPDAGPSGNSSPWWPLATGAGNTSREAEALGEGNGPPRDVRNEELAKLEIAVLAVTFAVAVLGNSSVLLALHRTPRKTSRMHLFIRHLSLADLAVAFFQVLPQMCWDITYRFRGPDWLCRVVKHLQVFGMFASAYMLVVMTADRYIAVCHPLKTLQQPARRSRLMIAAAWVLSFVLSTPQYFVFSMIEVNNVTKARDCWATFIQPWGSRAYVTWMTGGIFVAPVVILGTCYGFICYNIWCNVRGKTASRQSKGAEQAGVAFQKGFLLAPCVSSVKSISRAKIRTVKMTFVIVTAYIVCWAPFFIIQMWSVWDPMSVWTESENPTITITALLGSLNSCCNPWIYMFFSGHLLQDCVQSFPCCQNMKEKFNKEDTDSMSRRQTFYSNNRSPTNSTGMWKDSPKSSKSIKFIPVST

The assay concerns the target T1, human V1A receptor (Homo sapiens, UniProt P37288).
T1 construct: expressed in transfected cells; host or cells: CHO cells (CHO-hV1A line provided by Marc Thibonnier, Case Western Reserve University)
Kind of assay: V1A filter binding assay ([3H]-AVP binding to CHO-hV1A membranes). The procedure: 1.0 V1A Filter Binding Assay
Receptor binding assays were performed on cellular membranes prepared from CHO cells stably expressing the human V1A receptor, (CHO-hV1A). The CHO-hV1A cell line was kindly provided under a licensing agreement by Marc Thibonnier, Dept. of Medicine, Case Western Reserve University School of Medicine, Cleveland, Ohio. CHO-hV1A cells were routinely maintained at 37° C. in humidified atmosphere with 5% CO2 in DMEM/Hams F12 nutrient mix supplemented with 10% fetal bovine serum, 2 mM L-glutamine, 15 mM HEPES and 400 μg/ml G418. For bulk production of cell pellets, adherent CHO-hV1A cells were grown to confluency of 90-100% in 850 cm^2 roller bottles containing a medium of DMEM/Hams F12 Nutrient Mix supplemented with 10% fetal bovine serum, 2 mM L-glutamine and 15 mM HEPES. Confluent CHO-hV1A cells were washed with phosphate-buffered saline (PBS), harvested into ice cold PBS and centrifuged at 1,000 rpm. Cell pellets were stored at −80° C. until use. Cell pellets were thawed on ice and homogenised in membrane preparation buffer consisting of 50 mM Tris-HCl, pH 7.4, 5 mM MgCl2 and supplemented with a protease inhibitor cocktail, (Roche). The cell homogenate was centrifuged at 1000 rpm, 10 min, 4° C. and the supernatant was removed and stored on ice. The remaining pellet was homogenised and centrifuged as before. The supernatants were pooled and centrifuged at 25,000×g for 30 min at 4° C. […] Protein concentration was determined using Bradford reagent and BSA as a standard.
Protein linearity followed by saturation binding studies were performed on each new batch of membrane. […] Saturation binding studies were then performed using various concentrations of [^3H]-arginine vasopressin, [^3H]-AVP (0.05 nM-100 nM) and the Kd and Bmax determined.
Compounds were tested for their effects on [^3H]-AVP binding to CHO-hV1A membranes, (^3H-AVP; specific activity 65.5 Ci/mmol; NEN Life Sciences). […] The plates were sealed and counted on a TopCount Microplate Scintillation Counter (Packard Instruments). Non-specific binding (NSB) was determined using 1 μM unlabelled d(CH2)5Tyr(Me)AVP ([β-mercapto-β,β-cyclopentamethylenepropionyl, 0-Me-Tyr^2,Arg^8]-vasopressin ) (βMCPVP), (Sigma). The radioligand binding data was analysed using a four parameter logistic equation with the min forced to 0%. […] Specific binding was calculated by subtracting the mean NSB cpm from the mean Total cpm. For test compounds the amount of ligand bound to the receptor was expressed as % bound=(sample cpm−mean NSB cpm)/specific binding cpm×100. […] The inhibitory dissociation constant (Ki) was calculated using the Cheng-Prusoff equation: Ki=IC50/(1+[L]/Kd) where [L] is the concentration of ligand present in the well and Kd is the dissociation constant of the radioligand obtained from Scatchard plot analysis. […]
Take `COCc1nnc(N2Cc3ccccc3C2)n1-c1ccc(Cl)cc1` [Example 1, 2-[4-(4-Chlorophenyl)-5-(methoxymethyl)-4H-1,2,4-triazol-3-yl]isoindoline]: the pKi (in general, −log10 of the Ki, conventionally taken in molar units) is 8.01.

The compound `Clc1ccc(-n2c(Cn3nccn3)nnc2N2Cc3ccccc3C2)cc1` [Example 8, 2-[4-(4-Chlorophenyl)-5-(2H-1,2,3-triazol-2-ylmethyl)-4H-1,2,4-triazol-3-yl]isoindoline] showed a pKi of 9.06. For `OCc1ccc2c(c1)CN(c1nnc(Cn3nccn3)n1-c1ccc(Cl)cc1)C2` [Example 10, {2-[4-(4-Chlorophenyl)-5-(2H-1,2,3-triazol-2-ylmethyl)-4H-1,2,4-triazol-3-yl]-2,3-dihydro-1H-isoindol-5-yl}methanol], the pKi is 9.33. The result for `Cc1nnc(N2CCC3(CC2)OCc2ccccc23)n1-c1ccc(Cl)cc1` [Example 6, 1′-[4-(4-Chlorophenyl)-5-methyl-4H-1,2,4-triazol-3-yl]-3H-spiro[2-benzofuran-1,4′-piperidine]] reads 8.18.
